Measurements: US11905530B2, “Cell encapsulation device comprising a pancreatic progenitor cell population” (ViaCyte, Inc., priority 2009, dated 2024)

Columns and labels:
PEC derived from hESC = test: Flow cytometry analysis of PEC derived from hESC and treated with heregulin and/or FGF2; type: cell-based, human
Text: Table 9 provides a summary of the flow cytometry analysis of PEC cells treated with Hrg1β and FGF2 at stage 3 and/or 4. The endocrine cells are denoted as CHGA positive (or CHGA+) cells and the non-endocrine cells are denoted as CHGA negative (or CHGA−) cells. The endocrine (CHGA+) and non-endocrine cells (CHGA−) may stain positive for other markers, e.g., positive for PDX1 and/or NKX6.1.

[1] = tested on: hES-derived cell aggregates; test: Cell aggregate size of hES-derived cell aggregates in suspension culture; type: cell-based, human
Protocol: Preliminary studies were performed using Heregulin and FGF. In certain of these studies, Rho-kinase inhibitor, Y-27632, was included.

[2] = tested on: mice implanted with iPEC grafts; test: Glucose stimulated insulin secretion (GSIS): human C-peptide in serum of mice implanted with iPEC grafts; type: in vivo
Text: (§1) To determine whether the change in the composition of PEC and iPEC populations affected in vivo function, PEC and iPEC grafts from most of the experiments described in Table 11 were transplanted into mice substantially as previously described herein and in Applicant's other patent and non-patent publications, including Schulz et al. (2012) and Kroon et al (2008), supra and U.S. Pat. Nos. 7,534,608; 7,695,965; 7,993,920 and 8,278,106, supra. Briefly, PEC and iPEC populations were wholly encapsulated with a […] semi-permeable cell encapsulation device, some of which included micro perforations. The devices were manufactured by Applicant and are described in detail in U.S. Pat. No. 8,278,106, entitled ENCAPSULATION OF PANCREATIC CELLS FROM HUMAN PLURIPOTENT STEM CELLS, filed Nov. 13, 2009, the disclosure of which is incorporated herein by reference in its entirety. Glucose stimulated insulin secretion (GSIS) assays were performed starting from about 56 days post-implant. Blood was collected prior to (fasting) and at combinations of 30 and/or 60 minutes after glucose administration. Graft function was assessed by measuring human C-peptide concentrations in the serum in response to glucose administration.
The amount of human C-peptide released into the serum is indicative of the amount of insulin released. C-peptide is a short 31 amino acid peptide connecting or linking A and B-chains of proinsulin and preproinsulin, which is secreted by functioning beta or insulin secreting cells. As discussed previously by Kroon et al. (2008) supra and others, human C-peptide measurements are appropriate for assessing the release of de novo-generated insulin by the implanted cells. […] Human C-peptide was detected in the serum by at least 8 weeks post-implant. With additional weeks of implant and fasting, glucose-stimulated C-peptide levels increased with the peak levels of C-peptide shifting from 60 minutes to 30 minutes post-glucose administration, which is indicative of a more rapid response to glucose challenge as the insulin cells mature.

PEC (hESC) = test: Flow cytometry analysis of PEC from heregulin treated hESC-derived cell cultures (E2354); type: cell-based, human
Text: (§2) Changes to the standard method as set forth in Table 7 include, but are not limited to: optimization of the number of times any iPSC is passaged; modulating levels of BMP signaling; modulating iPSC suspension aggregation parameters during expansion and differentiation (e.g. shear force, rotation speed and the like); optimization of the concentrations, time of use and duration of use of growth factors, such as Wnt, Activin and rho-kinase inhibitors; and treatment with other growth factors at various stages 1 through 4 of the differentiation protocol as candidates for improving cell mass, proliferation, differentiation, survival and the like (e.g. ERBB ligands). These many iterative experiments were tested alone, or in combination, to determine how differentiation methods for iPSC during stages 1-4 could be optimized. […] The baseline conditions were similar to those described in Examples 1, 2 and 5 as well as Table 7 herein, except that heregulin was added at stages 3 and 4. Although 30 ng/mL of Hrg1β was used, concentrations ranging from 10 ng/mL to 50 ng/mL, or even greater than 50 ng/mL are suitable. Also, addition of a rho-kinase inhibitor, Y-27632, was maintained in the differentiation cultures as described in Example 2.
(§3) To determine the effect of the addition of heregulin or heregulin and a rho-kinase inhibitor on stage 3 and 4 cell subpopulations, iPEC populations were analyzed by flow cytometry. Table 11 provides a summary of the flow cytometry analysis of various iPEC populations using the formulations set forth in Table 10, as well as such formulations having been modified by increasing the Activin concentration to 200 ng/mL. […] Table 11 also discloses data regarding in vivo function of the cells produced in each experiment.
Under certain conditions, the ratio of subpopulations of cells in the PEC (hESC, E2354) and iPEC (E2314, E2344, E2347) populations were altered. For example, sometimes, the percentage of endocrine (CHGA+) cells decreased and the percentage of non-endocrine cells (CHGA−/NKX6.1+/PDX1+) increased as compared to the baseline (no heregulin) conditions.

[3] = tested on: iPS-derived cell cultures (iPEC); test: Flow cytometry analysis of iPEC populations from heregulin treated iPS-derived cell cultures; type: cell-based, human; settings: hIPSC, 30 ng/mL heregulin at stages 3 and 4
Text: as §2, §3

iPSC = test: Cell mass of iPSC-derived differentiation cultures for implantation; type: cell-based, human; settings: heregulin at stages 3 and 4 without a rho-kinase inhibitor; implantation impossible
Text: As such, the provision of heregulin alone or a rho-kinase inhibitor alone is not substantially similar to the sum effect of the two combined. That is, alone neither results in robust glucose responsiveness in vivo but combined they produce glucose responsiveness similar to that of hES-derived cells. Accordingly, it appeared that the provision of both heregulin and a rho-kinase inhibitor is synergistic since their combined effect is greater than the sum of the effect of each separately.

[4] = tested on: mice implanted with PEC grafts (CyT203 hESC); test: Glucose stimulated insulin secretion (GSIS): human C-peptide in serum of mice implanted with PEC grafts from hESC; type: in vivo; settings: experiment 2354; PEC produced from hESC; grafts resulting from heregulin treatment
Text: as §1
The amount of human C-peptide released into the serum is indicative of the amount of insulin released. […] Human C-peptide was detected in the serum by at least 8 weeks post-implant. […]

Fibroblast growth factor 2 [FGF2]
CHGA− NKX6.1− PDX1− (Triple Negative/ Residual Cells) (PEC derived from hESC; 50 ng/mL of FGF2 for 2 days at stage 3, control 13.1): 9.15% | CHGA+ (Endocrine) (PEC derived from hESC; 50 ng/mL of FGF2 for 2 days at stage 3, control 32.9): 11.9% | CHGA− NKX6.1+ PDX1+ (Non-endocrine) (PEC derived from hESC; 50 ng/mL of FGF2 for 2 days at stage 3, control 54.01): 79% | CHGA− NKX6.1− PDX1− (Triple Negative/ Residual Cells) (PEC derived from hESC; 50 ng/mL of FGF2 for 3 days at stage 3, control 13.1): 22.7% | CHGA+ (Endocrine) (PEC derived from hESC; 50 ng/mL of FGF2 for 3 days at stage 3, control 32.9): 0.33% | CHGA− NKX6.1+ PDX1+ (Non-endocrine) (PEC derived from hESC; 50 ng/mL of FGF2 for 3 days at stage 3, control 54.01): 76.9% | cell aggregate size ([1]; 3 days of 50 ng/mL FGF2 at stage 3 compared to 2 days): increase in cell aggregate size

C[C@@H](N)[C@H]1CC[C@H](C(=O)Nc2ccncc2)CC1 [rho-kinase inhibitor, Y-27632, reference compound]
in vivo function of graft ([2]; rho-kinase inhibitor alone (baseline conditions, no heregulin)): poor in vivo function

Heregulin-1β
CHGA− NKX6.1− PDX1− (Triple Negative/ Residual Cells) (PEC (hESC); Exp. E2354, 30 ng/mL heregulin at stages 3 and 4, baseline 1.75): 1.86% | CHGA− NKX6.1− PDX1+ (PDX1 only) (PEC (hESC); Exp. E2354, 30 ng/mL heregulin at stages 3 and 4, baseline 2.89): 8.10% | CHGA+ (Endocrine) (PEC (hESC); Exp. E2354, 30 ng/mL heregulin at stages 3 and 4, baseline 33.39): 16.18% | CHGA− NKX6.1+ PDX1+ (Non-endocrine) (PEC (hESC); Exp. E2354, 30 ng/mL heregulin at stages 3 and 4, baseline 62.01): 73.00% | CHGA− NKX6.1− PDX1− (Triple Negative/ Residual Cells) ([3]; Exp. E2314, baseline 3.20): 9.88% | CHGA− NKX6.1− PDX1+ (PDX1 only) ([3]; Exp. E2314, baseline 11.32): 16.83% | CHGA+ (Endocrine) ([3]; Exp. E2314, baseline 19.83): 9.00% | CHGA− NKX6.1+ PDX1+ (Non-endocrine) ([3]; Exp. E2314, baseline 65.59): 64.21% | CHGA− NKX6.1− PDX1− (Triple Negative/ Residual Cells) ([3]; Exp. E2344, baseline 1.80): 2.75% | CHGA− NKX6.1− PDX1+ (PDX1 only) ([3]; Exp. E2344, baseline 5.45): 11.23% | CHGA− NKX6.1+ PDX1+ (Non-endocrine) ([3]; Exp. E2344, baseline 36.15): 49.00% | CHGA+ (Endocrine) ([3]; Exp. E2344, baseline 56.51): 36.13% | CHGA− NKX6.1− PDX1− (Triple Negative/ Residual Cells) ([3]; Exp. E2347, baseline 2.11): 1.68% | CHGA− NKX6.1− PDX1+ (PDX1 only) ([3]; Exp. E2347, baseline 10.97): 12.30% | CHGA− NKX6.1+ PDX1+ (Non-endocrine) ([3]; Exp. E2347, baseline 37.16): 68.91% | CHGA+ (Endocrine) ([3]; Exp. E2347, baseline 49.78): 17.27% | CHGA− NKX6.1− PDX1− (Triple Negative/ Residual Cells) ([3]; Exp. E2380, baseline 9.10): 7.03% | CHGA− NKX6.1− PDX1+ (PDX1 only) ([3]; Exp. E2380, baseline 12.08): 17.24% | CHGA− NKX6.1+ PDX1+ (Non-endocrine) ([3]; Exp. E2380, baseline 38.18): 29.72% | CHGA+ (Endocrine) ([3]; Exp. E2380, baseline 41.16): increased rather than decreased | CHGA+ (Endocrine) ([3]; Exp. E2380, baseline 41.16, listed as Hg): 45.91% | CHGA− NKX6.1− PDX1− (Triple Negative/ Residual Cells) (PEC derived from hESC; 10 ng/mL Heregulin-1β at stage 3, control without Hrg and FGF2 13.1, listed as Hrg): 8.55% | CHGA− NKX6.1− PDX1− (Triple Negative/ Residual Cells) (PEC derived from hESC; 10 ng/mL Heregulin-1β at stage 3, control without Hrg and FGF2 13.1, listed as Hrg1β): did decrease | CHGA− NKX6.1+ PDX1+ (Non-endocrine) (PEC derived from hESC; 10 ng/mL Heregulin-1β at stage 3, control without Hrg and FGF2 54.01): 61.2% | CHGA+ (Endocrine) (PEC derived from hESC; 10 ng/mL Heregulin-1β at stage 3, share of PEC population, control without Hrg and FGF2 32.9, listed as Hrg): 30.3% | CHGA+ (Endocrine) (PEC derived from hESC; 10 ng/mL Heregulin-1β at stage 3, share of PEC population, control without Hrg and FGF2 32.9, listed as Hrg1β): not significantly affected | CHGA− NKX6.1− PDX1− (Triple Negative/ Residual Cells) (PEC derived from hESC; 50 ng/mL Heregulin-1β at stage 3, control 13.1, listed as Hrg): 6.9% | CHGA− NKX6.1− PDX1− (Triple Negative/ Residual Cells) (PEC derived from hESC; 50 ng/mL Heregulin-1β at stage 3, control 13.1, listed as Hrg1β): did decrease and more so | CHGA+ (Endocrine) (PEC derived from hESC; 50 ng/mL Heregulin-1β at stage 3, control 32.9): 28.9% | CHGA− NKX6.1+ PDX1+ (Non-endocrine) (PEC derived from hESC; 50 ng/mL Heregulin-1β at stage 3, control 54.01): 64.2% | cell mass (iPSC): visibly poor cell mass | cell aggregate size ([1]; 10 ng/mL for one day at stage 1, compared to suspension culture without Heregulin-1β, preliminary studies): increased the cell aggregate size | aggregate disk size ([1]; Hrg1β increased from 10 ng/mL to 50 ng/mL at stage 3): aggregate disk size increased | increase of serum human C-peptide compared to grafts prepared without heregulin (baseline) ([2]; experiment 2380, 60 minutes post glucose administration): ~5 fold | serum human C-peptide ([2]; experiment 2380, iPEC grafts resulting from heregulin treatment, 60 minutes post glucose administration, baseline 200 pM): 933 pM | serum human C-peptide post glucose administration compared to baseline controls ([2]; grafts resulting from heregulin treatment, in general (FIGS. 7A-7C)): higher levels of serum human C-peptide | serum C-peptide compared to baseline controls [4]: does not show higher levels of serum C-peptide
